Patent US10729718B2, “Substances containing AuCs and preparation method and use thereof” (Shenzhen Profound-View Pharma Tech Co., Ltd, priority 2016, dated 2020)

How the values were obtained:
Aβ(1-40) [1] = biological target: T1, Aβ(1-40) (Homo sapiens, UniProt P05067); assay: In vitro Aβ aggregation kinetic experiment (ThT fluorescent labeling method); format: biochemical; conditions: ThT fluorescence, 20 μM Aβ(1-40), 37° C., up to 20.0 ppm (L-NIBC 1.0 and 10.0 ppm)
T1 construct: Freeze-dried powder of amyloid polypeptide Aβ(1-40) (Invitrogen Corp.); purchased Invitrogen Corp
T1 sequence (P05067 672-711 limits assumed): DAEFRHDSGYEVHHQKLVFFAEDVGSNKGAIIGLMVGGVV
Text: Thioflavin T (abbreviation: ThT) is a dye specifically for dyeing amyloid fibers. […] When it encounters amyloid polypeptides or proteins with a fiber structure, it will immediately couple with the amyloid polypeptides or proteins and its fluorescence intensity will increase exponentially. Just because of this property, ThT is widely used as a marker to monitor amyloidosis of peptides or proteins. The fibrosis process of Aβ(1-40) is also a nucleation-controlled polymerization process. Therefore, the growth curve of Aβ(1-40) fiber measured by ThT fluorescent labeling method is mainly divided into three stages: Initial stage, growth stage and platform stage. […] All the Aβ(1-40) PBS solutions for the experiments were prepared freshly. […] The samples were incubated continuously in a 96-well plate at 37° C. by ThT fluorescent labeling method, and monitored the fluorescence intensity by microplate reader once every 10 minutes.

Aβ(1-40) [2] = biological target: T1, Aβ(1-40); assay: AFM topography of Aβ(1-40) after coincubation for 48 h; format: biochemical; conditions: coincubated with Aβ(1-40) for 48 h
Method: Panel A is the AFM topography after Aβ(1-40) was incubated alone for 48 h. Panel B is an AFM topography after Aβ(1-40) was coincubated with L-NIBC for 48 h. Panel C and panel D are AFM topographies after Aβ(1-40) was coincubated with gold nanoparticles with an average particle size of 6.0 nm and 3.6 nm respectively (modified with L-NIBC) for 48 h. And panel E is an AFM topography after Aβ(1-40) was coincubated with AuCs in an average particle size of 1.8 nm (modified with L-NIBC) for 48 h.

[3] = system: SH-SY5Y neuroblastoma cell line; assay: Aβ induced AD cell model, cell viability by CCK-8 method; format: cell-based; conditions: 0.01-20 ppm (L-NIBC 20 ppm); 20 μM Aβ(1-40), 24 h
Method: The cell viability was used as an index in the experiment of this embodiment. […] The cells used in the experiment were SH-SY5Y neuroblastoma cell line. […] Specific method:
1) SH-sy5y cells (cells had passed to the sixth generation) in logarithmic growth phase were diluted with complete medium (MEM+10% FBS+1% penicillin-streptomycin) to get a cell suspension in a density of 5×10^4/mL. The suspension was inoculated 200 μL per well into a 96-well plate, and cultivated in an incubator with 5% CO2 at 37° C. A sample was added when the cells attached to the wells.
2) 100 μL ligand-modified AuCs samples or ligand-modified gold nanoparticles samples, at different particle sizes and at concentrations of 0.04 ppm, 0.4 ppm, 4 ppm, 20 ppm, 40 ppm and 80 ppm respectively, which were dissolved by maintenance medium (MEM+2% FBS+1% penicillin-streptomycin) were added into the incubated suspension obtained from Step 1). After incubating in the incubator for 2 h, 100 μL 80 μM Aβ(1-40) was added, and then the mixture was incubated in the incubator for 24 h. […] The culture medium was removed, maintenance medium (MEM) containing 10% CCK-8 at 100 μL/well was added and was incubated for 4 h, the absorbance of each well at 450 nm was measured to reflect the prevention and treatment effects of ligand-modified AuCs on Aβ(1-40) lesion.

α-syn = biological target: T2, α-syn (Homo sapiens, UniProt P37840); assay: In vitro α-syn aggregation kinetics (ThT fluorescent labeling method); format: biochemical; conditions: ligand only (L-NIBC 1.0 and 10.0 ppm), 35 μM α-syn, 37° C.
T2 construct: purchased Bachem Corp
Text: Thioflavin T (abbreviation: ThT) is a dye for dyeing amyloid fibers specifically. […] When it encounters amyloid polypeptide or protein with a fiber structure, it will immediately couple with the amyloid polypeptides or proteins and its fluorescence intensity will increase exponentially. For this reason, ThT is widely used as markers to monitor amyloidosis of peptides or proteins. This embodiment utilizes ThT fluorescent labeling method to monitor the kinetics process of fibrosis aggregation of α-syn with the existence of AuCs. The specific experiment method was as follows:
Pretreatment of α-syn monomers: Freeze-dried powder (Bachem Corp.) of α-syn was dissolved in HFIP to obtain a 1 g/L α-syn solution. The solution was incubated at room temperature for 2-4 h after sealing, then blowed to dry HFIP by high-purity nitrogen in a fume hood. […]
Sample preparation and detection: Ligand-modified AuCs in different concentrations listed in Table 1 were added to 35 μM α-syn PBS solutions respectively, and incubated continuously in a 96-well plate at 37° C., by ThT fluorescent labeling method, and were monitored the fluorescence intensity by microplate reader once every 10 minutes. The kinetic process of α-syn aggregation was characterized through the change of fluorescence intensity of ThT. […]

SH-sy5y cells = assay: MPP+ induced PD cell (SH-sy5y) model, Experiment 2, CCK-8; format: cell-based; conditions: 1 mM MPP^+ and ligand 20 ppm, 24 h; model control 65.1±4.0%

SMILES: CC(C)C(=O)N[C@@H](CS)C(=O)O [L-NIBC, N-isobutyryl-L-cysteine]
- effect on Aβ(1-40) amyloidosis / aggregation kinetics (Aβ(1-40) [1]): no obvious effect
- formation of Aβ(1-40) fibers (AFM topography) (Aβ(1-40) [2]): no obvious effect
- effect on cell viability of Aβ induced AD cell model [3]: did not improve cell viability
- effect on kinetics of α-syn aggregation (α-syn): did not have an obvious effect
- cell viability of the ligand control group (SH-sy5y cells): 61.5±3.8%
